Experimental data taken from patent publication US20060128762A1, “Medicinal composition and method for treating malignant tumor and utilization thereof” (D.Western Therapeutics Institute, priority 2002, published 2006).

Key:
[1] = system: Murine Monocytic Leukemia P388; assay: Antitumor effect on P388 murine monocytic leukemia transplanted into mouse (survival); type: in vivo; parameters: MST (median survival time): unit not given here; details: for MST (median survival time) / Survival number on day 50 / T/C (%): N = 6; for survival rate on day 5: administered alone
Protocol: Monocytic leukemia cell line P388 was purchased from Japanese Foundation for Cancer Research, Cancer Chemotherapy Center. The cryopreserved tumor was transplanted intraperitoneally into DBA/2 mouse (Japan SLC, Inc.). When the abdominal bloating was observed, ascites was removed and subjected to the test.
Compound 2 was weighed and ground down in an agate motor. It was then suspended slowly in the motor by adding 0.5% aqueous methylcellulose solution (M.C.) step by step to obtain 10 mg/ml suspension. The suspension was further diluted with M.C. to obtain a normal concentration and stored at 4° C. CDDP was dissolved and diluted with physiological saline. Immediately after preparation, the CDDP solution was subjected to test.
Male 4-week-old DBA/2 mice (n=10, 2 mice for the present test) and male 4-week-old CDF1 mice (DBA/2×BALB/c) (n=156) were purchased from Japan SLC, Inc., and used six animals per group. Animals were kept in a chamber maintained at room temperature of 21 to 25° C. and humidity of 45-65% with a given lighting time intervals (light period: 7:00 to 19:00; dark period: 19:00 to 7:00) and allowed to access freely to feed (F-2, Funabashi Nojo) and tap water. The animals purchased were used in the test after subjecting to taming and quarantine for 1 week.
The cryopreserved P388 cell lines were transplanted intraperitoneally into DBA/2 mouse. When the abdominal bloating was observed, ascites containing cancer cells were removed. The ascites was diluted with phosphate-buffered physiological saline (PBS, pH7.4) until the cell concentration became 5×10^6 cells/ml. The resultant solution (0.2 ml) was transplanted intraperitoneally into CDF1 mouse (1×10^6 cells/mouse). The drug was administered to mouse (0.1 ml/10 g body weight) on and after the next day of transplantation.
Compound 2 was administered orally and CDDP intraperitoneally. Animals of control group were untreated because of diversity of administration route and complexity of administration schedule.
The administration was started on the next day (day 1) of transplantation of tumor according to the protocol shown in Table 1, i.e., day 1; day 2; or day 1 and 2.

[2] = Stability of the suspension in 0.5% aqueous methylcellulose solution; type: physicochemical; details: suspension in 0.5% aqueous methylcellulose solution (M.C.), in a cold place
Protocol: Compound 2 was weighed and ground down in an agate motor. It was then suspended slowly in the motor by adding 0.5% aqueous methylcellulose solution (M.C.) step by step to obtain 10 mg/ml suspension. The suspension was further diluted with M.C. to obtain a normal concentration and stored at 4° C. CDDP was dissolved and diluted with physiological saline. Immediately after preparation, the CDDP solution was subjected to test. It is assured that the suspension of Compound 2 in M.C. is homogeneous and stable for 14 days in a cold place.

[3] = Compound 2 25 mg/kg p.o on day 1
[4] = Compound 2 25 mg/kg p.o on day 2
[5] = Compound 2 50 mg/kg p.o on day 1
[6] = Compound 2 50 mg/kg p.o on day 2
[7] = Compound 2 100 mg/kg p.o on day 1
[8] = Compound 2 100 mg/kg p.o on day 2

N.N.[Cl][Pt][Cl] [CDDP, cis-platinum (II) diamine chloride, reference compound]
MST (median survival time) ([1]; CDDP 2.5 mg/kg i.p on day 1): 14.5
Survival number on day 50 ([1]; CDDP 2.5 mg/kg i.p on day 1): 0
T/C (%) ([1]; CDDP 2.5 mg/kg i.p on day 1): 145%
MST (median survival time) ([1]; CDDP 2.5 mg/kg i.p on day 2): 15.5
Survival number on day 50 ([1]; CDDP 2.5 mg/kg i.p on day 2): 0
T/C (%) ([1]; CDDP 2.5 mg/kg i.p on day 2): 155%
MST (median survival time) ([1]; CDDP 5 mg/kg i.p on day 1): 17
Survival number on day 50 ([1]; CDDP 5 mg/kg i.p on day 1): 0
T/C (%) ([1]; CDDP 5 mg/kg i.p on day 1): 170%
MST (median survival time) ([1]; CDDP 5 mg/kg i.p on day 2): 17
Survival number on day 50 ([1]; CDDP 5 mg/kg i.p on day 2): 0
T/C (%) ([1]; CDDP 5 mg/kg i.p on day 2): 170%
MST (median survival time) ([1]; CDDP 10 mg/kg i.p on day 1): 17
Survival number on day 50 ([1]; CDDP 10 mg/kg i.p on day 1): 0
T/C (%) ([1]; CDDP 10 mg/kg i.p on day 1): 170%
MST (median survival time) ([1]; CDDP 10 mg/kg i.p on day 2): 17
Survival number on day 50 ([1]; CDDP 10 mg/kg i.p on day 2): 0
T/C (%) ([1]; CDDP 10 mg/kg i.p on day 2): 170%
survival rate on day 5 [1]: not observed

COc1ccc(S(=O)(=O)N(C(C)=O)c2ccccc2/C=C/c2cc[n+]([O-])cc2)cc1 [Compound 2, (E)-4-[2-[2-[N-acetyl-N-[(p-methoxyphenyl)sulfonyl]-amino]phenyl]ethenyl]pyridine 1-oxide]
MST (median survival time) [1, 3]: 12.5
Survival number on day 50 [1, 3]: 0
T/C (%) [1, 3]: 125%
MST (median survival time) [1, 4]: 13
Survival number on day 50 [1, 4]: 0
T/C (%) [1, 4]: 130%
MST (median survival time) [1, 5]: 13
Survival number on day 50 [1, 5]: 0
T/C (%) [1, 5]: 130%
MST (median survival time) [1, 6]: 13
Survival number on day 50 [1, 6]: 0
T/C (%) [1, 6]: 130%
MST (median survival time) [1, 7]: 16.5
Survival number on day 50 [1, 7]: 0
T/C (%) [1, 7]: 165%
MST (median survival time) [1, 8]: 15
Survival number on day 50 [1, 8]: 0
T/C (%) [1, 8]: 150%
survival rate on day 5 [1]: not observed
time for which the suspension in M.C. is homogeneous and stable [2]: 14 days
